The text below walks through data of the OPERA property sets (Mansouri et al. 2018).

Structures are written as SMILES. Where a SMILES comes first, the peptide text is derived from it.

Take `Cc1nc(Cl)c(C#N)cc1-c1ccccc1`: the logP turned out to be 3.24.

In turn, `CCCCNC(=O)n1cc(F)c(=O)[nH]c1=O` showed a logP of 1.44.

`COc1ccc(CCNCC(O)COc2ccc(-c3nc(C(C)=O)c(C)[nH]3)cc2)cc1OC` (configuration not stated) returned a logP of 2.14.

Compound `O=C(c1c(F)cccc1F)c1ccc2n1CCC2C(=O)O` (configuration not stated) displayed a logP of 2.47.

In turn, `Cc1ccc(C)c(O)c1C` had a logP of 2.67.

Compound `Nc1ccc(O)c2ncccc12` displayed a logP of -0.11.

Compound `Oc1cc2ccccc2cc1O` registered a logP of 2.24.

Regarding `O=[N+]([O-])c1nccn1CCN1CCOCC1`, the logP was -0.1.

As for `CC(=O)c1cccc(Nc2ccccc2C(=O)O)c1`, the logP was found to be 4.07.

`O=c1[nH]nc(-c2ccccc2)c2ccccc12` gave a logP of 2.48.

For `CC(C)c1nnc(SCC(=O)c2ccccc2)n(N)c1=O`, the logP was 2.07.

The compound `CCCCc1ccncc1` registered a lipophilicity (logP) of 3.13.

As for `CC1CC2C3CC(F)C4=CC(=O)C(Cl)=CC4(C)C3(Cl)C(O)CC2(C)C1(O)C(=O)COC(=O)C(C)(C)C` (configuration not stated), the lipophilicity (logP) came out at 4.73.

Compound `Cc1cn([C@H]2C[C@H](O)[C@@H](CO)O2)c(=O)[nH]c1=O` returned a logP of -0.93.

`CCCCCCC(C)(C)c1cc(O)c2c(c1)OC(C)(C)C1CC=C(C)CC21` (configuration not stated) had a logP of 9.96.

Compound `CCC1(c2ccccc2)C(=O)N=C(OC(C)C)NC1=O` (configuration not stated) returned a logP of 1.79.

`Nc1ccc(S(=O)(=O)Nc2ccccc2[N+](=O)[O-])cc1` displayed a logP of 2.11.

`C[C@H]1O[C@@H](O[C@H]2[C@@H](O)C[C@H](O[C@H]3[C@@H](O)C[C@H](O[C@H]4CC[C@@]5(C)[C@H](CC[C@@H]6[C@@H]5CC[C@]5(C)[C@@H](C7=CC(=O)OC7)CC[C@]65O)C4)O[C@@H]3C)O[C@@H]2C)C[C@H](O)[C@@H]1O` gave a logP of 1.85.

On to `CCC(=O)Oc1c(OC)c(OC)c(OC(=O)CC)c2ccccc12`, for which the logP amounted to 3.44.

`CCCCCCCCCCOc1ccc(C(=O)O)cc1`: the lipophilicity (logP) is 6.29.

Turning to `CCC(CC)C(=O)O`, the logP was determined as 1.68.

In turn, `CCNC(C)Cc1cccc(C(F)(F)F)c1` (configuration not stated) gave a logP of 3.36.

`CC1(C)NC(=Nc2ncc([N+](=O)[O-])s2)OC1(C)C` displayed a logP of 2.4.

The compound `COc1ccc(C(=O)OCC2OC(n3cnc4c(OC)ncnc43)C2OC(=O)c2ccc(OC)cc2)cc1` (configuration not stated) gave a logP of 3.65.

On to `CC1CCCc2nccc(=O)n21` (configuration not stated), for which the logP stood at 0.3.

On to `CCCCCC1Nc2cc(C(F)(F)F)c(S(N)(=O)=O)cc2S(=O)(=O)N1` (configuration not stated), for which the logP came out at 2.66.

In turn, `OC(Cn1ccnc1)(c1ccc(F)cc1)c1ccc(-c2ccccn2)cc1` (configuration not stated) returned a logP of 3.58.

Compound `CCCCc1ccc(N2C(N)=NC(N)=NC2(C)C)cc1` yielded a logP of 2.66.

In turn, `CCC(C(=O)OCc1ccccc1)C(COC(=O)c1ccccc1)Cc1cncn1C` (configuration not stated) yielded a logP of 4.37.

As for `O=C(c1ccc(F)cc1)c1ccc2n1CCC2C(=O)O` (configuration not stated), the lipophilicity (logP) turned out to be 2.82.

The compound `CCCCNC(=O)NS(=O)(=O)c1ccc(N)cc1` had a logP of 1.01.

In turn, `CCCN(CCC)CC(=O)NC1c2ccccc2-c2ccccc21` had a logP of 4.61.

The compound `CCc1ccc(CC(=O)O)cc1` registered a logP of 2.25.

In turn, `O=C1c2ccccc2C(=O)C1c1cccc(C(F)(F)F)c1` gave a log partition coefficient (logP) of 3.78.

Turning to `CCOc1cccc(NC(=O)CN2CCCCC2)c1`, the logP came out at 3.17.

`O=Nc1ccc(O)c(=O)cc1`: the logP amounted to 0.83.

Compound `OC(CN1CCOCC1)(c1ccc(F)cc1)c1ccc(-c2ccncc2)cc1` (configuration not stated) registered a log partition coefficient (logP) of 2.82.

On to `CC1CCC2C(C)C(OC(=O)Oc3ccccc3)OC3OC4(C)CCC1C32OO4` (configuration not stated), for which the logP was 4.41.

Compound `O=C1CN=C(c2ccccc2)c2cc(Br)ccc2N1` returned a logP of 3.11.

For the compound `CC(=O)OCC1=C(C(=O)OCOC(=O)C(C)(C)C)N2C(=O)C(NC(=O)Cc3cccs3)C2SC1` (configuration not stated), the logP worked out at 1.57.

For `Cc1cc(Cl)cc(C)c1NC1=NCCN1`, the logP was found to be 2.5.

Compound `CC(C)N1C(=O)SC(=Cc2ccc([N+](=O)[O-])o2)C1=O` yielded a lipophilicity (logP) of 2.42.

`O=C(CCN1CCC(O)(c2ccc(Cl)cc2)CC1)c1ccc(F)cc1` yielded a logP of 3.24.

As for `Cc1cc(N=O)ccc1O`, the lipophilicity (logP) came out at 1.71.

For `CCN1CCCCC1`, the logP is 1.75.

Compound `O=c1ccccc(O)c1` came in with a logP of 0.81.

With `OCc1cc(Cl)cc(Cl)c1O`, the logP is 2.3.

As for `CC(C)c1ccc(S(N)(=O)=O)cc1`, the logP stood at 1.84.

`CCCN(C(C)=O)C(C)C` came in with a logP of 1.48.

Regarding `Cc1cc(Br)cc(C(=O)NC(C)C)c1O`, the logP is 4.19.

In turn, `CCN(CC)CC(=O)NCc1ccccc1` gave a logP of 2.14.

In turn, `Clc1cc(Cl)cc(-c2ccccc2)c1` showed a lipophilicity (logP) of 5.41.

Regarding `CCOC(=O)C=COc1ccccc1Cl`, the logP came out at 3.55.

`CCC1OC(=O)C(C)C(OC2CC(C)(OC)C(O)C(C)O2)C(C)C(OC2OC(C)CC(N(C)C)C2O)C(C)(O)CC(C)C(=O)C(C)C(OC(C)=O)C1(C)O` (configuration not stated) registered a logP of 2.85.

As for `CCCCCC(=O)OCC(Cc1cncn1C)C(CC)C(=O)OCc1ccccc1` (configuration not stated), the log partition coefficient (logP) turned out to be 4.75.

For the compound `C=C(C)C(=O)OCCOCCOCCOC(=O)C(=C)C`, the logP is 1.88.

`Cc1ccc2c(c1)C(c1ccccc1)=NCC(=O)N2` registered a log partition coefficient (logP) of 2.62.

In turn, `CCCCn1c(=O)n(C)c(=O)c2[nH]cnc21` registered a logP of 1.29.

The compound `O=C1Nc2ccccc2CC1c1ccccc1` (configuration not stated) displayed a logP of 2.93.

As for `Cc1cnc2n(c1=O)C(C)CCC2` (configuration not stated), the logP amounted to 0.82.

The compound `CCC1OC(=O)C(C)C(OC2CC(C)(OC)C(OC(C)=O)C(C)O2)C(C)C(OC2OC(C)CC(N(C)C)C2O)C(C)(O)CC(C)C(=O)C(C)C(O)C1C` (configuration not stated) yielded a logP of 3.23.

In turn, `OC(Cn1ccnc1)(c1ccc(-c2ccccn2)cc1)c1ccc(F)cc1F` (configuration not stated) showed a logP of 3.65.

With `CCCCCCCCCCC(=O)O`, the logP amounted to 4.42.

Consider `O=C(Cn1ccnc1[N+](=O)[O-])NCc1ccccc1`, for which the logP is 0.91.

Compound `Oc1ccc2[nH]ccc2c1` registered a lipophilicity (logP) of 1.11.

`CNC(Cc1ccccc1)Cc1ccccc1` came in with a logP of 3.8.

Compound `CCN1CC(C(O)C(CC2CCCCC2)NC(=O)C(Cc2cnc[nH]2)NC(=O)C(CC(=O)N(C)CCOCOC)Cc2ccccc2)OC1=O` (configuration not stated) had a logP of 2.49.

`Cc1coc2ccc3ccc(=O)oc3c12` had a logP of 2.38.

With `CCCOC(=O)c1ccccc1Cl`, the logP was determined as 3.45.

Consider `OC(CCN1CCCCC1)(c1ccccc1)C1CC2C=CC1C2` (configuration not stated), for which the logP came to 4.25.

The compound `Oc1cccc2c1CCCC2` gave a logP of 2.95.

Compound `C#CC1(O)C(F)CC2C3CCc4cc(O)ccc4C3C(CC)CC21C` (configuration not stated) showed a logP of 4.12.

Compound `Clc1ccc(-c2ccccc2)c(Cl)c1` yielded a logP of 5.16.

Turning to `C=CCOc1ccc(C(=O)c2ccc3n2CCC3C(=O)O)cc1` (configuration not stated), the logP came out at 3.48.

`CCOC(=O)C1=C(C)OC(=Cc2ccc(OC)cc2)C1=O`: the logP was determined as 2.96.

`CC(=O)c1ccc(C(O)(Cn2ccnc2)c2ccc(-c3ccncc3)cc2)cc1` (configuration not stated) had a logP of 2.41.

For the compound `CCCCCCCCCCCCCc1cccc(O)c1`, the logP was determined as 8.84.

Compound `CCCC(O)C(=O)O` (configuration not stated) came in with a logP of 0.45.

Consider `C=C(C)C(=O)OCC(CC)CCCC` (configuration not stated), for which the logP was found to be 4.54.

Regarding `CCCCNC(=O)c1cc(Br)cc(C)c1O`, the logP worked out at 4.21.

`CCN(CC)CCNC(=O)c1cc(Br)c(N)cc1OC` showed a logP of 2.83.

Compound `CCCCC(O)C(=O)O` (configuration not stated) came in with a logP of 0.81.

`CCOP(N)(=O)ON=C(C#N)c1ccccc1` (configuration not stated) registered a logP of 0.72.

As for `CCN(CC)CCCCCC(=O)Nc1c(C)cccc1C`, the log partition coefficient (logP) was 2.95.

`CCCCCCCCCCCC(=O)O` had a logP of 4.6.

`CCCCc1ccc(O)cc1`: the logP came out at 3.65.

Regarding `O=C(COc1ccc(OCCNCC(O)COc2ccccc2)cc1)NCCCO` (configuration not stated), the log partition coefficient (logP) came to 0.5.

In the case of `O=C(CN1CCCC1)NCc1ccccc1`, the logP was 1.69.

In turn, `COC(=O)N(C)SN(C)C(=O)ON=C(C)SC` showed a logP of 1.4.

Compound `N#CC(CCN1CCC(C(N)=O)(N2CCCCC2)CC1)(c1ccccc1)c1ccccc1` had a logP of 3.91.

In the case of `CCC(C(=O)OCc1ccccc1)C(COC(=O)c1cccc(Cl)c1)Cc1cncn1C` (configuration not stated), the logP came out at 5.08.

Compound `Cc1ccccc1NC1=NCCN1` registered a logP of 1.28.

Consider `CCOCc1ccccc1`, for which the lipophilicity (logP) is 2.16.

Consider `c1ccc(CC2=NCCN2)cc1`, for which the logP was found to be 2.65.

`CCCc1ccc(O)cc1` displayed a log partition coefficient (logP) of 3.2.

In turn, `CC(N)CC1CCCCCCC1` (configuration not stated) yielded a logP of 3.7.

Compound `O=C(NC12CC3CC(CC(C3)C1)C2)C(O)c1ccccc1` (configuration not stated) returned a logP of 3.09.

Compound `CCC(O)(C(N)=O)c1ccccc1` (configuration not stated) yielded a logP of 1.2.

Turning to `CCCCCCCCC(=O)O`, the log partition coefficient (logP) came out at 3.42.

`O=C(NCCNCC(O)COc1ccc(-c2ncc[nH]2)cc1)Nc1ccccc1` (configuration not stated): the logP came to 1.19.

As to `OC(CNCCc1ccncc1)COc1ccc(-c2ncc(-c3cccs3)[nH]2)cc1` (configuration not stated), the log partition coefficient (logP) came to 2.25.

Compound `CCC1(CC)C(=O)NC(=O)N=C1OC(C)C` came in with a logP of 1.86.

With `CCNC(=O)NS(=O)(=O)c1ccc(Cl)cc1`, the logP turned out to be 1.79.

In turn, `Cc1ccc(F)cc1NC1=NCCN1` showed a logP of 1.41.

`Cc1cccc(C)c1NC(=O)CN`: the logP was determined as 0.41.

For the compound `CC/C=C\C/C=C\C/C=C\CCCCCCCC(=O)O`, the logP is 6.46.

`CN(C)N=Nc1ccc(C(=O)O)cc1` returned a log partition coefficient (logP) of 2.33.

Turning to `CCCCCCCCCCC(C)(C)c1ccc(C2CCCC(O)C2)c(O)c1` (configuration not stated), the logP amounted to 8.42.

`CCCCCCC(C)(C)c1ccc(C2CC(O)CCC2CCCO)c(O)c1` (configuration not stated) registered a logP of 6.13.

Turning to `CCNc1nc(Cl)nc(NC2CC2)n1`, the logP is 2.17.

On to `c1ccc(-c2ncn[nH]2)cc1`, for which the logP is 1.54.

For the compound `CC(=O)NCC(=O)N[C@H](C(N)=O)C(C)C` (Ac-Gly-Val-NH2), the logP was -1.33.

In turn, `COc1cccc2c1C(=O)c1c(O)c3c(c(O)c1C2=O)CC(O)(C(=O)CO)CC3OC1CC(N2CCOCC2)C(O)C(C)O1` (configuration not stated) displayed a logP of 1.73.

`CCCOC(=O)C(C(=O)OCCC)=C1SCCS1` displayed a logP of 3.35.

Take `OC1(c2cc(Cl)ccc2Cl)CCCCC1n1cncn1` (configuration not stated): the logP is 3.24.

On to `CN(C)CCCCN(Cc1ccc(C(C)(C)C)cc1)c1ccccc1`, for which the logP came to 5.53.

In turn, `Cc1c(Br)cccc1N=C1NCCN1` displayed a logP of 1.94.

One may read the logP as a log measure of how a compound divides between an organic and an aqueous phase. Read a high logP as a more lipophilic compound.
